Earlier results as cited in PubChem BioAssay AID1259409 (Chemical Carcinogenesis Research Information System (CCRIS), 2018).

Test system: rodent chemically induced tumor inhibition, incidence and multiplicity
Assay: CCRIS tumor inhibitor studies

SMILES: COc1ccc(C(c2ccc(OC)cc2)C(Cl)(Cl)Cl)cc1
- outcome (Carcinogen: N-NITROSOBIS(2-HYDROXYPROPYL)AMINE, 53609-64-6, Dose [Inhibitor]: 0, 1000 PPM IN DIET FOR 27 WK BEGINNING 9 WK POST CARCINOGEN TREATMENT (STUDY DURATION: 37 WK), Route [Inhibitor]: ORAL, Species: RAT, Strain/Sex: F344/FEMALE, Target Tissue: Type of Lesion: THYROID GLAND: ADENOMA, Dose [Carcinogen]: 2000 MG/KG BW 1 WK POST BILATERAL OVARIECTOMY, Promoter: SULFADIMETHOXINE, 122-11-2): 0/12 (0%), 2/15 (13%), not significant
- tumour outcome (control, treated, inhibition, significance) (Carcinogen: N-NITROSOBIS(2-HYDROXYPROPYL)AMINE, 53609-64-6, Dose [Inhibitor]: 0, 1000 PPM IN DIET FOR 27 WK BEGINNING 9 WK POST CARCINOGEN TREATMENT (STUDY DURATION: 37 WK), Route [Inhibitor]: ORAL, Species: RAT, Strain/Sex: F344/FEMALE, Target Tissue: Type of Lesion: THYROID GLAND: CARCINOMA, Dose [Carcinogen]: 2000 MG/KG BW 1 WK POST BILATERAL OVARIECTOMY, Promoter: SULFADIMETHOXINE, 122-11-2): 10/12 (83%), 6/15 (40%), 52%, p<0.05

SMILES: CC(Cc1ccc(O)c(O)c1)C(C)Cc1ccc(O)c(O)c1 (stereo unspecified)
- tumour outcome (control, treated, inhibition, significance) (Carcinogen: 7,12-DIMETHYLBENZ[A]ANTHRACENE, 57-97-6, Dose [Inhibitor]: 0, 10 UMOL IN 0.2 ML ACETONE 1/D FOR 7 D BEGINNING 7 D PRIOR TO CARCINOGEN DOSE (STUDY DURATION: 17 WK), Route [Inhibitor]: DERMAL, Species: RAT, Strain/Sex: SENCAR/FEMALE, Target Tissue: Type of Lesion: SKIN: TUMOR, Dose [Carcinogen]: 40 NMOL IN 0.2 ML ACETONE ONCE, Promoter: 12-0-TETRADECANOYLPHORBOL-13-ACETATE, 16561-29-8): 100%, 100%, 0%, not significant
- tumour outcome (control, treated, inhibition, significance) (Carcinogen: 7,12-DIMETHYLBENZ[A]ANTHRACENE, 57-97-6, Dose [Inhibitor]: 0, 10 UMOL IN 0.2 ML ACETONE 2/WK FOR 16 WK APPLIED 30 MIN PRIOR TO PROMOTER DOSES (STUDY DURATION: 17 WK), Route [Inhibitor]: DERMAL, Species: RAT, Strain/Sex: SENCAR/FEMALE, Target Tissue: Type of Lesion: SKIN: TUMOR, Dose [Carcinogen]: 40 NMOL IN 0.2 ML ACETONE ONCE, Promoter: 12-0-TETRADECANOYLPHORBOL-13-ACETATE, 16561-29-8): 100%, 85%, 15%, not calculated
- tumour outcome (control, treated, inhibition, significance) (Carcinogen: 7,12-DIMETHYLBENZ[A]ANTHRACENE, 57-97-6, Dose [Inhibitor]: 30 UMOL APPLIED 30-40 MIN BEFORE EACH TPA TREATMENT AND CONCURRENTLY WITH TPA (STUDY DURATION: 18 WK), Route [Inhibitor]: DERMAL, Species: MOUSE, Strain/Sex: CD-1/FEMALE, Target Tissue: Type of Lesion: SKIN: PAPILLOMA, Dose [Carcinogen]: 200 NMOL ONCE, Promoter: 12-O-TETRADECANOYLPHORBOL-13-ACETATE, 16561-29-8): 96%, 50%, 48%, not calculated
- tumour outcome (control, treated, inhibition, significance) (Carcinogen: DIETHYLNITROSAMINE, 55-18-5, Dose [Inhibitor]: 0, 1 MG/D IN 0.2 ML CORN OIL 3/WK FOR 16 WKS BEGINNING POST CARCINOGEN DOSE (STUDY DURATION: 24 WKS), Route [Inhibitor]: GAVAGE, Species: MOUSE, Strain/Sex: SWISS/MALE, Target Tissue: Type of Lesion: KIDNEY: RENAL CELL TUMOR, Dose [Carcinogen]: 100 MG/KG BW IN SALINE ONCE, Promoter: FERRIC NITRILOTRIACETATE, 16448-54-7): 68%, 20%, 71%, not calculated
- tumour outcome (control, treated, inhibition, significance) (Carcinogen: DIETHYLNITROSAMINE, 55-18-5, Dose [Inhibitor]: 0, 2 MG/D IN 0.2 ML CORN OIL 3/WK FOR 16 WK BEGINNING POST CARCINOGEN DOSE (STUDY DURATION:24 WKS), Route [Inhibitor]: GAVAGE, Species: MOUSE, Strain/Sex: SWISS/MALE, Target Tissue: Type of Lesion: KIDNEY: RENAL CELL TUMOR, Dose [Carcinogen]: 100 MG/KG BW IN SALINE ONCE, Promoter: FERRIC NITRILOTRIACETATE, 16448-54-7): 68%, 16%, 76%, not calculated
- tumour outcome (control, treated, inhibition, significance) (Carcinogen: N-BUTYL-N-(4-HYDROXYBUTYL)NITROSAMINE, 3817-11-6, Dose [Inhibitor]: 0, 0.1% IN DIET CONCURRENT WITH PROMOTER BEGINNING POST CARCINOGEN TREATMENT AND CONTINUING FOR 36 WK (STUDY DURATION: 4, Route [Inhibitor]: ORAL, Species: RAT, Strain/Sex: F344/MALE, Target Tissue: Type of Lesion: URINARY BLADDER: CARCINOMA, Dose [Carcinogen]: 0.05% IN DRINKING WATER FOR 4 WK, Promoter: SODIUM SACCHARIN, 128-44-9): 2/23 (9%), 1/22 (5%), 44%, not significant
- tumour outcome (control, treated, inhibition, significance) (Carcinogen: N-BUTYL-N-(4-HYDROXYBUTYL)NITROSAMINE, 3817-11-6, Dose [Inhibitor]: 0, 0.1% IN DIET CONCURRENT WITH PROMOTER BEGINNING POST CARCINOGEN TREATMENT AND CONTINUING FOR 36 WK (STUDY DURATION: 4, Route [Inhibitor]: ORAL, Species: RAT, Strain/Sex: F344/MALE, Target Tissue: Type of Lesion: URINARY BLADDER: PAPILLOMA, Dose [Carcinogen]: 0.05% IN DRINKING WATER FOR 4 WK, Promoter: SODIUM SACCHARIN, 128-44-9): 5/23 (22%), 0/22 (0%), 100%, p<0.05

SMILES: COc1c2ccoc2c(OC)c2oc(=O)ccc12
- tumour outcome (control, treated, inhibition, significance) (Carcinogen: 7,12-DIMETHYLBENZ[A]ANTHRACENE, 57-97-6, Dose [Inhibitor]: 0, 30 MG/KG BW TWICE AT 24 HR AND 2 HR PRIOR TO CARCINOGEN DOSE (STUDY DURATION: 18 WK), Route [Inhibitor]: GAVAGE, Species: MOUSE, Strain/Sex: SENCAR/FEMALE, Target Tissue: Type of Lesion: INTEGUMENTARY SYSTEM: SKIN PAPILLOMA, Dose [Carcinogen]: 10 NMOL IN 0.2 ML ACETONE ONCE, Promoter: 12-O-TETRADECANOYLPHORBOL-13-ACETATE, 16561-29-8): 30/30 (100%), 29/30 (97%), 3%, not significant
- tumour outcome (control, treated, inhibition, significance) (Carcinogen: 7,12-DIMETHYLBENZ[A]ANTHRACENE, 57-97-6, Dose [Inhibitor]: 0, 70 MG/KG BW TWICE AT 24 HR AND 2 HR PRIOR TO CARCINOGEN DOSE (STUDY DURATION: 18 WK), Route [Inhibitor]: GAVAGE, Species: MOUSE, Strain/Sex: SENCAR/FEMALE, Target Tissue: Type of Lesion: INTEGUMENTARY SYSTEM: SKIN PAPILLOMA, Dose [Carcinogen]: 10 NMOL IN 0.2 ML ACETONE ONCE, Promoter: 12-O-TETRADECANOYLPHORBOL-13-ACETATE, 16561-29-8): 30/30 (100%), 26/30 (86%), 14%, not significant
- tumour outcome (control, treated, inhibition, significance) (Carcinogen: 7,12-DIMETHYLBENZ[A]ANTHRACENE, 57-97-6, Dose [Inhibitor]: 0, 150 MG/KG BW TWICE AT 24 HR AND 2 HR PRIOR TO CARCINOGEN DOSE (STUDY DURATION: 18 WK), Route [Inhibitor]: GAVAGE, Species: MOUSE, Strain/Sex: SENCAR/FEMALE, Target Tissue: Type of Lesion: INTEGUMENTARY SYSTEM: SKIN PAPILLOMA, Dose [Carcinogen]: 10 NMOL IN 0.2 ML ACETONE ONCE, Promoter: 12-O-TETRADECANOYLPHORBOL-13-ACETATE, 16561-29-8): 30/30 (100%), 23/30 (78%), 22%, p< 0.006
- tumour outcome (control, treated, inhibition, significance) (Carcinogen: 7,12-DIMETHYLBENZ[A]ANTHRACENE, 57-97-6, Dose [Inhibitor]: 0, 400 NMOL IN 0.2 ML ACETONE ONCE 5 MIN PRIOR TO CARCINOGEN DOSE (STUDY DURATION: 18 WK), Route [Inhibitor]: DERMAL, Species: MOUSE, Strain/Sex: SENCAR/FEMALE, Target Tissue: Type of Lesion: INTEGUMENTARY SYSTEM: SKIN PAPILLOMA, Dose [Carcinogen]: 10 NMOL IN 0.2 ML ACETONE ONCE, Promoter: 12-O-TETRADECANOYLPHORBOL-13-ACETATE, 16561-29-8): 30/30 (100%), 28/30 (93%), 7%, not significant
- tumour outcome (control, treated, inhibition, significance) (Carcinogen: 7,12-DIMETHYLBENZ[A]ANTHRACENE, 57-97-6, Dose [Inhibitor]: 0, 800 NMOL IN 0.2 ML ACETONE ONCE 5 MIN PRIOR TO CARCINOGEN DOSE (STUDY DURATION: 18 WK), Route [Inhibitor]: DERMAL, Species: MOUSE, Strain/Sex: SENCAR/FEMALE, Target Tissue: Type of Lesion: INTEGUMENTARY SYSTEM: SKIN PAPILLOMA, Dose [Carcinogen]: 10 NMOL IN 0.2 ML ACETONE ONCE, Promoter: 12-O-TETRADECANOYLPHORBOL-13-ACETATE, 16561-29-8): 30/30 (100%), 27/30 (90%), 10%, not significant
- tumour outcome (control, treated, inhibition, significance) (Carcinogen: 7,12-DIMETHYLBENZ[A]ANTHRACENE, 57-97-6, Dose [Inhibitor]: 0, 1600 NMOL IN 0.2 ML ACETONE ONCE 5 MIN PRIOR TO CARCINOGEN DOSE (STUDY DURATION: 18 WK), Route [Inhibitor]: DERMAL, Species: MOUSE, Strain/Sex: SENCAR/FEMALE, Target Tissue: Type of Lesion: INTEGUMENTARY SYSTEM: SKIN PAPILLOMA, Dose [Carcinogen]: 10 NMOL IN 0.2 ML ACETONE ONCE, Promoter: 12-O-TETRADECANOYLPHORBOL-13-ACETATE, 16561-29-8): 30/30 (100%), 23/30 (77%), 23%, p< 0.002
- tumour outcome (control, treated, inhibition, significance) (Carcinogen: 7,12-DIMETHYLBENZ[A]ANTHRACENE, 57-97-6, Dose [Inhibitor]: 0, 3200 NMOL IN 0.2 ML ACETONE ONCE 5 MIN PRIOR TO CARCINOGEN DOSE (STUDY DURATION: 18 WK), Route [Inhibitor]: DERMAL, Species: MOUSE, Strain/Sex: SENCAR/FEMALE, Target Tissue: Type of Lesion: INTEGUMENTARY SYSTEM: SKIN PAPILLOMA, Dose [Carcinogen]: 10 NMOL IN 0.2 ML ACETONE ONCE, Promoter: 12-O-TETRADECANOYLPHORBOL-13-ACETATE, 16561-29-8): 30/30 (100%), 27/30 (89%), 11%, not significant
